Legend:
Experiment in all cases: Bliss excess, mean over the matrix (fraction); higher = more synergy
KS-1 (Glioblastoma) = test system: KS-1 (Glioblastoma)
Outline: (§1)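 After 24 hours at 37°C and 5% CO2 in 1536-well plates, cells in DMEM/F12 or RPMI plus 10% FBS received two-drug dose matrices for 72 hours. Viability came from CellTiter-Glo 2.0 luminescence and was scaled as inhibition, anchored at 0 by vehicle wells and at 1 by blank wells. Combination Emax is taken as the second-highest inhibition in the matrix, and Bliss excess as the observed combination effect less EA + EB − EA·EB, with EA and EB the single-agent effects.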

[1] = test system: CAL-33 (Oral Cavity Carcinoma)
Outline: as §1

[2] = test system: BFTC-909 (Kidney Carcinoma)
Outline: as §1

[3] = test system: KYAE-1 (Esophageal Adenocarcinoma)
Outline: as §1

[4] = test system: KMRC-20 (Kidney Carcinoma)
Outline: as §1

[5] = test system: SW1710 (Bladder Carcinoma)
Outline: as §1

[6] = test system: NCI-H1568 (Lung Adenocarcinoma)
Outline: as §1

[7] = test system: OE21 (Esophageal Squamous Cell Carcinoma)
Outline: as §1

[8] = test system: NUGC-4 (Gastric Carcinoma)
Outline: as §1

LOXIMVI (Melanoma) = test system: LOXIMVI (Melanoma)
Outline: as §1

[9] = test system: Detroit562 (Head and Neck Carcinoma)
Outline: as §1

[10] = test system: MHH-CALL-2 (B-Lymphoblastic Leukemia)
Outline: as §1

[11] = test system: ESS-1 (Other Solid Carcinomas)
Outline: as §1

[12] = test system: YAPC (Pancreatic Carcinoma)
Outline: as §1

[13] = test system: WSU-NHL (B-Cell Non-Hodgkin's Lymphoma)
Outline: as §1

[14] = test system: OVCAR-5 (Ovarian Carcinoma)
Outline: as §1

[15] = test system: SAS (Oral Cavity Carcinoma)
Outline: as §1

[16] = test system: TGBC1TKB (Biliary Tract Carcinoma)
Outline: as §1

[17] = test system: FTC-133 (Thyroid Gland Carcinoma)
Outline: as §1

[18] = test system: SNU-16 (Gastric Carcinoma)
Outline: as §1

Row | Compound | Bliss excess (KS-1 (Glioblastoma)) | Bliss excess [1] | Bliss excess [2] | Bliss excess [3] | Bliss excess [4] | Bliss excess [5] | Bliss excess [6] | Bliss excess [7] | Bliss excess [8] | Bliss excess (LOXIMVI (Melanoma)) | Bliss excess [9] | Bliss excess [10] | Bliss excess [11] | Bliss excess [12] | Bliss excess [13] | Bliss excess [14] | Bliss excess [15] | Bliss excess [16] | Bliss excess [17] | Bliss excess [18]
1 | CN(C)CCCOc1ccc(-c2ccc3ncc4c(c3c2)n(C2CCOCC2)c(=O)n4C)cn1 [AZD0156] + O=C(c1cc(Cc2n[nH]c(=O)c3ccccc23)ccc1F)N1CCN(C(=O)C2CC2)CC1 [Olaparib] (first compound max 3 µM, partner max 3 µM) | 0.0259 | 0.0741 | 0.0705 | 0.0247 | 0.0163 | -0.0233 | 0.0101 | -0.0006 | -0.0473 | 0.0317 | 0.058 | 0.106 | 0.0655 | 0.0131 | 0.403 | -0.0123 | 0.0188 | -0.0294 | – | –
2 | C=CCn1c(=O)c2cnc(Nc3ccc(N4CCN(C)CC4)cc3)nc2n1-c1cccc(C(C)(C)O)n1 [AZD1775] + C1CN(CCC1(C(=O)N[C@@H](CCO)C2=CC=C(C=C2)Cl)N)C3=NC=NC4=C3C=CN4 [Capivasertib] (first compound max 3 µM, partner max 3 µM) | -0.0126 | 0.066 | -0.0004 | -0.0284 | -0.0646 | 0.0334 | -0.0572 | -0.0253 | -0.14 | 0.0764 | 0.0209 | 0.029 | -0.0251 | -0.0097 | -0.0271 | -0.0923 | -0.0206 | -0.0061 | – | –
3 | CN(CCO)CC[C@H](CSc1ccccc1)Nc1ccc(S(=O)(=O)NC(=O)c2ccc(N3CCC([C@@H](O)c4ccccc4-c4ccc(Cl)cc4)CC3)cc2)cc1S(=O)(=O)C(F)(F)F [AZD4320] + C1CN(CCC1(C(=O)N[C@@H](CCO)C2=CC=C(C=C2)Cl)N)C3=NC=NC4=C3C=CN4 [Capivasertib] (first compound max 1 µM, 7x7, partner max 3 µM) | -0.0435 | -0.0424 | -0.0955 | -0.031 | -0.0546 | -0.034 | -0.0518 | 0.0073 | -0.0706 | -0.0189 | -0.0535 | -0.0126 | 0.0028 | -0.0415 | -0.0413 | -0.0487 | -0.0369 | -0.0306 | -0.0459 | 0.0015
4 | CN(CCO)CC[C@H](CSc1ccccc1)Nc1ccc(S(=O)(=O)NC(=O)c2ccc(N3CCC([C@@H](O)c4ccccc4-c4ccc(Cl)cc4)CC3)cc2)cc1S(=O)(=O)C(F)(F)F [AZD4320] + C=CCn1c(=O)c2cnc(Nc3ccc(N4CCN(C)CC4)cc3)nc2n1-c1cccc(C(C)(C)O)n1 [AZD1775] (first compound max 1 µM, partner max 1 µM) | 0.0327 | -0.0266 | 0.0577 | 0.032 | 0.0331 | -0.0047 | 0.0492 | – | -0.0217 | 0.0203 | -0.0067 | 0.14 | 0.002 | -0.0482 | -0.0242 | – | 0.05 | 0.0352 | 0.0341 | 0.0049
5 | CN(CCO)CC[C@H](CSc1ccccc1)Nc1ccc(S(=O)(=O)NC(=O)c2ccc(N3CCC([C@@H](O)c4ccccc4-c4ccc(Cl)cc4)CC3)cc2)cc1S(=O)(=O)C(F)(F)F [AZD4320] + CCN(CCO)CCCOc1ccc2c(Nc3cc(CC(=O)Nc4cccc(F)c4)[nH]n3)ncnc2c1 [AZD2811] (first compound max 1 µM, 7x7, partner max 1 µM) | 0.0261 | 0.0228 | 0.0605 | -0.0149 | 0.0024 | -0.0291 | -0.0102 | -0.0212 | -0.0407 | 0.0896 | 0.0043 | 0.138 | 0.21 | -0.0464 | -0.0295 | -0.0458 | -0.037 | -0.0478 | 0.0384 | 0.0638
6 | CN(CCO)CC[C@H](CSc1ccccc1)Nc1ccc(S(=O)(=O)NC(=O)c2ccc(N3CCC([C@@H](O)c4ccccc4-c4ccc(Cl)cc4)CC3)cc2)cc1S(=O)(=O)C(F)(F)F [AZD4320] + CN(C)CCCOc1ccc(-c2ccc3ncc4c(c3c2)n(C2CCOCC2)c(=O)n4C)cn1 [AZD0156] (first compound max 1 µM, 7x7, partner max 1 µM) | -0.0136 | 0.007 | 0.009 | -0.0114 | -0.0377 | -0.0302 | -0.0099 | -0.0207 | -0.0513 | 0.0015 | -0.0332 | 0.106 | 0.039 | -0.028 | -0.0238 | -0.0527 | -0.0472 | -0.022 | 0.0392 | -0.0207
7 | CN(CCO)CC[C@H](CSc1ccccc1)Nc1ccc(S(=O)(=O)NC(=O)c2ccc(N3CCC([C@@H](O)c4ccccc4-c4ccc(Cl)cc4)CC3)cc2)cc1S(=O)(=O)C(F)(F)F [AZD4320] + C[C@@H]1COCCN1C2=NC(=NC(=C2)C3(CC3)[S@](=N)(=O)C)C4=C5C=CNC5=NC=C4 [AZD6738] (first compound max 1 µM, 7x7, partner max 10 µM) | 0.0082 | 0.0019 | 0.042 | 0.0036 | -0.0289 | -0.0455 | -0.0135 | 0.0053 | -0.0172 | 0.0028 | -0.015 | 0.0042 | -0.0296 | -0.0423 | -0.104 | -0.0282 | -0.0255 | -0.0093 | 0.0324 | 0.0219
8 | CN(CCO)CC[C@H](CSc1ccccc1)Nc1ccc(S(=O)(=O)NC(=O)c2ccc(N3CCC([C@@H](O)c4ccccc4-c4ccc(Cl)cc4)CC3)cc2)cc1S(=O)(=O)C(F)(F)F [AZD4320] + C[C@@H](Nc1cc(F)cc(F)c1)c1cc(C(=O)N(C)C)cc2c(=O)cc(N3CCOCC3)oc12 [AZD8186] (first compound max 1 µM, 7x7, partner max 3 µM) | -0.0166 | -0.0039 | -0.0011 | 0.011 | 0.0459 | 0.0263 | -0.0013 | 0.0243 | 0.0385 | -0.0239 | 0.0261 | 0.042 | -0.01 | -0.0258 | -0.037 | -0.0133 | 0.0033 | 0.0019 | 0.0718 | 0.0286
9 | CN(CCO)CC[C@H](CSc1ccccc1)Nc1ccc(S(=O)(=O)NC(=O)c2ccc(N3CCC([C@@H](O)c4ccccc4-c4ccc(Cl)cc4)CC3)cc2)cc1S(=O)(=O)C(F)(F)F [AZD4320] + Cn1cnc2c(F)c(Nc3ccc(Br)cc3Cl)c(C(=O)NOCCO)cc21 [Selumetinib] (first compound max 1 µM, 7x7, partner max 3 µM) | -0.0051 | 0.0749 | 0.0212 | -0.0146 | 0.0022 | 0.0287 | -0.0035 | 0.0225 | 0.0784 | 0.0352 | 0.072 | 0.298 | -0.0507 | 0.0082 | -0.0491 | -0.0282 | 0.043 | -0.012 | -0.0023 | -0.0054
10 | COc1nnc2ccc(N3CCC(c4ccc(OCCN5CCN(C)C(=O)[C@H]5C)cc4)CC3)nn12 [AZD5153] + C=CCn1c(=O)c2cnc(Nc3ccc(N4CCN(C)CC4)cc3)nc2n1-c1cccc(C(C)(C)O)n1 [AZD1775] (first compound max 1 µM, partner max 1 µM) | -0.0308 | -0.0757 | -0.0723 | -0.0142 | -0.0446 | -0.0582 | -0.102 | -0.0497 | -0.0478 | -0.0494 | -0.0535 | -0.0843 | -0.0749 | -0.0403 | -0.0255 | -0.0591 | -0.0302 | 0.015 | -0.0099 | -0.0385
11 | COc1nnc2ccc(N3CCC(c4ccc(OCCN5CCN(C)C(=O)[C@H]5C)cc4)CC3)nn12 [AZD5153] + CC1(C)CCC(CN2CCN(c3ccc(C(=O)NS(=O)(=O)c4ccc(NCC5CCOCC5)c([N+](=O)[O-])c4)c(Oc4cnc5[nH]ccc5c4)c3)CC2)=C(c2ccc(Cl)cc2)C1 [Venetoclax] (first compound max 1 µM, 7x7, partner max 1 µM) | -0.0763 | -0.0393 | -0.105 | -0.0171 | -0.0096 | -0.0739 | -0.0383 | -0.0352 | -0.0455 | -0.0687 | -0.0552 | -0.0292 | -0.017 | -0.0115 | 0.0355 | -0.052 | -0.0325 | 0.0071 | -0.0745 | -0.0522
12 | COc1nnc2ccc(N3CCC(c4ccc(OCCN5CCN(C)C(=O)[C@H]5C)cc4)CC3)nn12 [AZD5153] + CCN(CCO)CCCOc1ccc2c(Nc3cc(CC(=O)Nc4cccc(F)c4)[nH]n3)ncnc2c1 [AZD2811] (first compound max 1 µM, 7x7, partner max 1 µM) | -0.0317 | -0.128 | 0.0272 | -0.0092 | -0.148 | -0.052 | -0.064 | -0.0315 | -0.0508 | -0.0129 | -0.0804 | 0.0191 | -0.0091 | -0.0203 | -0.0807 | -0.0781 | -0.0499 | 0.0017 | -0.0014 | 0.0728
13 | Cc1c2c(nn1C)CSCc1cc(n(C)n1)CSc1cc(c3ccccc3c1)OCCCc1c(C(=O)O)n(C)c3c-2c(Cl)ccc13 [AZD5991] + CCN(CCO)CCCOc1ccc2c(Nc3cc(CC(=O)Nc4cccc(F)c4)[nH]n3)ncnc2c1 [AZD2811] (first compound max 1 µM, 7x7, partner max 1 µM) | -0.0459 | 0.0153 | 0.0156 | 0.0422 | 0.0023 | 0.0088 | -0.0051 | 0.0345 | – | 0.0212 | 0.0396 | 0.0503 | -0.0014 | -0.0037 | -0.0206 | -0.0434 | -0.0092 | -0.0141 | 0.0074 | 0.0377
14 | CCc1c2c(nc3ccc(O)cc13)-c1cc3c(c(=O)n1C2)COC(=O)[C@]3(O)CC [SN-38] + CN(C)CCCOc1ccc(-c2ccc3ncc4c(c3c2)n(C2CCOCC2)c(=O)n4C)cn1 [AZD0156] (first compound max 0.3 µM, 7x7, partner max 1 µM) | -0.0369 | 0.0579 | 0.0225 | -0.0188 | -0.0156 | 0.0111 | -0.0078 | -0.0243 | 0.0208 | 0.0017 | 0.118 | – | 0.0109 | -0.0553 | 0.0636 | -0.0235 | 0.0781 | -0.006 | -0.0031 | 0.107

From the supplement of paper PMC11061612
